Results as given in patent US20230310293A1, “COOLING SENSATION COMPOSITIONS” (GIVAUDAN SA, priority 2020, published 2023).

Assay: Solubility of non-natural cooling compounds in lactic acid
Format: physicochemical
Details: warmed to about 50° C. with gentle agitation for 1 hour per step, highest tested weight % that dissolved
Protocol: Into a 20ml vial 0.4 g of the respective non-natural cooling compound as indicated in Table 1 below have been added followed by the addition of 1.6 g lactic acid. The vial was warmed to about 50° C. with gentle agitation for 1 hour. If the respective non-natural cooling compound hasn’t dissolved, 2 g lactic acid was added (resulting in a composition comprising 10 weight % of a non-natural cooling compound), and again gentle agitated for an additional hour at about 50° C. If the non-natural cooling compound still hasn’t dissolved, 4 g of lactic acid was added (resulting in a composition comprising 5 weight % of anon-natural cooling compound), and again gentle agitated for an additional hour at about 50° C.
If the non-natural cooling compound still has not dissolved, the procedure above has been repeated, starting with 0.05 g of the non-natural cooling compound and 0.95 g of lactic acid. If still not dissolved, 1 g lactic acid was added (resulting in a composition comprising 2.5 weight % of a non-natural cooling compound). If still not dissolved further solvent was added.
If 0.4 g the non-natural cooling compound dissolved in 1.6 g lactic acid, the procedure above has been repeated, starting with 1 g of the non-natural cooling compound and 1 g lactic acid. If the respective non-natural cooling compound hasn’t dissolved, 0.5 g lactic acid was added (resulting in a composition comprising 40 weight % of a non-natural cooling compound), and again gentle agitated for an additional hour at about 50° C. If the non-natural cooling compound still hasn’t dissolved, 0.83 g of lactic acid was added (resulting in a composition comprising 30 weight % of anon-natural cooling compound), and again gentle agitated for an additional hour at about 50° C.

Structure (SMILES)	Soluble solution (solubility of non-natural cooling compound in lactic acid)
C=CC(C)(C)C(=O)N1CCCCC1c1ncc(-c2ccc(C)cc2)[nH]1 (stereo not shown) [2,2-dimethyl-1-(2-(5-(p-tolyl)-1H-imidazol-2-yl)piperidin-1-yl)but-3-en-1-one]	30 wt %
CSC(C)C(=O)N1CCCCC1c1ncc(-c2ccc(C)cc2)[nH]1 (stereo not shown) [2-(methylthio)-1-(2-(5-(p-tolyl)imidazol-2-yl)piperidin-1-yl)propan-1-one]	50 wt %
CC1CCC(C(C)C)C(C(=O)NCCc2ccccn2)C1 (stereo not shown) [2-isopropyl-5-methyl-N-(2-(pyridin-2-yl)ethyl)cyclohexane-1-carboxamide]	20 wt %
CNC(=O)C(C)(C(C)C)C(C)C [2-isopropyl-N,2,3-trimethylbutanamide]	20 wt% wt %
Cc1ccc(OCC(=O)N(Cc2cccs2)c2ccn[nH]2)cc1 [N-(1H-pyrazol-3-yl)-N-(thiophen-2-ylmethyl)-2-(p-tolyloxy)acetamide]	30 wt %
CC(C)C1CCC(C)(C)CC1C(=O)NCC(O)c1ccccc1 (stereo not shown) [N-(2-hydroxy-2-phenylethyl)-2-isopropyl-5,5-dimethylcyclohexane-1-carboxamide]	5 wt% wt %
CCOC(=O)CNC(=O)C1CC(C)CCC1C(C)C (stereo not shown) [ethyl (2-isopropyl-5-methylcyclohexane-1-carbonyl)glycinate]	20 wt% wt %

Now from value to molecule:

Soluble solution (solubility of non-natural cooling compound in lactic acid)	Structure (SMILES)
5 wt% wt %	CCc1ccc(OCC(=O)N(Cc2cccs2)c2cc[nH]n2)cc1 [2-(4-ethylphenoxy)-N-(1H-pyrazol-3-yl)-N-(thiophen-2-ylmethyl)acetamide]
20 wt% wt %	CC1CCC(C(C)C)C(OC(=O)C(C)O)C1 (stereo not shown) [2-isopropyl-5-methylcyclohexyl 2-hydroxypropanoate]
50 wt %	CCC(C)C(=O)N1CCCCC1c1ncc(-c2ccc(C)cc2)[nH]1 (stereo not shown) [2-methyl-1-(2-(5-(p-tolyl)-1H-imidazol-2-yl)piperidin-1-yl)butan-1-one]
40 wt %	CSC(C)(C)C(=O)N1CCCCC1c1ncc(-c2ccc(C)cc2)[nH]1 (stereo not shown) [2-methyl-2-(methylthio)-1-(2-(5-(p-tolyl)-1H-imidazol-2-yl)piperidin-1-yl)propan-1-one]
2.5 wt% wt %	CC1CCC(C(C)C)C(C(=O)Nc2ccc(CC(N)=O)cc2)C1 (stereo not shown) [N-(4-(2-amino-2-oxoethyl)phenyl)-2-isopropyl-5-methylcyclohexane-1-carboxamide]
10 wt% wt %	CCNC(=O)C1CC(C)CCC1C(C)C (stereo not shown) [N-Ethyl-p-menthane-3-carboxamide]
